US20050075619A1, “Container for linezolid intravenous solution” (priority 2000, published 2005)

Assay: loss of linezolid in IV aqueous solution during and following terminal moist heat sterilization in the container
Format: physicochemical
Conditions: container-solution contact surface made of at least 50% polyolefin
Method: The linezolid IV solution is formulated by heating water for injection from about 50 to about 65°. Next the sodium citrate, citric acid and dextrose are added and stirred until dissolved. An aqueous slurry of linezolid is added to the previous mixture and stirred until dissolved. The mixture is cooled to 25° with stirring. The pH is measured and adjusted if necessary. Last the mixture is brought to volume, if necessary, with water for injection. The mixture is filtered, filled into infusion containers, over wrapped and terminally moist heat sterilized.
When terminally moist heat sterilizing an IV solution, the solution is placed in the container in which (1) it will be stored and then transferred to the container from which it will ultimately be administered, or (2) stored and then ultimately administered from the same container to deliver the IV solution to the patient. Therefore, it is imperative that the pharmaceutically active ingredient (oxazolidinone, linezolid) not react with the container in which it is to be terminally moist heat sterilized and stored/stored-administered.
What is essential is that the container-solution contact surface material be primarily a polyolefin; the remainder of the container can be made from polyolefin or other materials. It is preferred that the container-solution contact surface is made of from about 50 to about 100% polyolefin. […]

loss of linezolid during and following terminal moist heat sterilization: significantly much less loss
SMILES: CC(=O)NC[C@H]1CN(c2ccc(N3CCOCC3)c(F)c2)C(=O)O1 [linezolid, (S)-N-[[3-[3-fluoro-4-(4-morpholinyl)phenyl]-2-oxo-5-oxazolidinyl]methyl]acetamide]
